The compounds below were run on MCF-10A (assay: normalised response (% of control), CellTiter-Glo; higher = more viable cells (100 = DMSO, 0 = benzethonium chloride kill control)). Details: incubation time: 72 h.
Method in brief: (§1)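 A 20 µl suspension of breast cancer cells was seeded into each well of 384-well plates containing compound at 5 concentrations in 10-fold steps over a compound-specific 10,000-fold range. After 72 h incubation, CellTox Green fluorescence (485/520 nm) was read first, and CellTiter-Glo luminescence was read after 10 min at room temperature. Each plate was normalised against 0.1 % DMSO (100) and a positive kill control (0), and each value is the normalised signal at one concentration.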

Structure (SMILES)	normalised response [%]
COc1cc2c(NC3CCN(C(C)C)CC3)nc(N3CCC(F)(F)CC3)nc2cc1OCCCN1CCCC1 [UNC0642] (100 nM)	94.8
COCC[n+]1c2c(n(Cc3cnccn3)c1C)C(=O)c1ccccc1C2=O [YM155] (100 nM)	6.51

These compounds were tested on CAL-120 in the same assay as above. Details: incubation time: 72 h.
Method in brief: as §1

Structure (SMILES)	normalised response [%]
CNC(=O)c1ccc(N2C(=S)N(c3ccc(C#N)c(C(F)(F)F)c3)C(=O)C23CCC3)cc1F [RD162] (100 nM)	103
CNC(=O)c1cc(Oc2ccc(NC(=O)Nc3ccc(Cl)c(C(F)(F)F)c3)c(F)c2)ccn1 [Regorafenib] (100 nM)	98.1
c1ccc2c(CCNc3ccc(Nc4ccncc4)cc3)c[nH]c2c1 [Serdemetan] (100 nM)	98.2
CC(C)C[C@@H](C(=O)N[C@H](C(=O)OC1CCCC1)c1ccccc1)[C@H](O)C(=O)NO [Tosedostat] (100 nM)	79.6
COc1cc2c(NC3CCN(C(C)C)CC3)nc(N3CCC(F)(F)CC3)nc2cc1OCCCN1CCCC1 [UNC0642] (100 nM)	92
COCC[n+]1c2c(n(Cc3cnccn3)c1C)C(=O)c1ccccc1C2=O [YM155] (100 nM)	-0.1

What follows are compounds tested on SK-BR-3 in the same assay as above. Details: incubation time: 72 h.
Method in brief: as §1

Structure (SMILES)	normalised response [%]
CNC(=O)c1ccc(N2C(=S)N(c3ccc(C#N)c(C(F)(F)F)c3)C(=O)C23CCC3)cc1F [RD162] (100 nM)	103
CNC(=O)c1cc(Oc2ccc(NC(=O)Nc3ccc(Cl)c(C(F)(F)F)c3)c(F)c2)ccn1 [Regorafenib] (100 nM)	105
c1ccc2c(CCNc3ccc(Nc4ccncc4)cc3)c[nH]c2c1 [Serdemetan] (100 nM)	98.3
CC(C)C[C@@H](C(=O)N[C@H](C(=O)OC1CCCC1)c1ccccc1)[C@H](O)C(=O)NO [Tosedostat] (100 nM)	82.8
COc1cc2c(NC3CCN(C(C)C)CC3)nc(N3CCC(F)(F)CC3)nc2cc1OCCCN1CCCC1 [UNC0642] (100 nM)	96
COCC[n+]1c2c(n(Cc3cnccn3)c1C)C(=O)c1ccccc1C2=O [YM155] (100 nM)	4.6

The compounds below were run on HDQ-P1 in the same assay as above. Details: incubation time: 72 h.
Method in brief: as §1

Structure (SMILES)	normalised response [%]
CNC(=O)c1ccc(N2C(=S)N(c3ccc(C#N)c(C(F)(F)F)c3)C(=O)C23CCC3)cc1F [RD162] (100 nM)	99.7
CNC(=O)c1cc(Oc2ccc(NC(=O)Nc3ccc(Cl)c(C(F)(F)F)c3)c(F)c2)ccn1 [Regorafenib] (100 nM)	98.8
c1ccc2c(CCNc3ccc(Nc4ccncc4)cc3)c[nH]c2c1 [Serdemetan] (100 nM)	105
CC(C)C[C@@H](C(=O)N[C@H](C(=O)OC1CCCC1)c1ccccc1)[C@H](O)C(=O)NO [Tosedostat] (100 nM)	90.3
COc1cc2c(NC3CCN(C(C)C)CC3)nc(N3CCC(F)(F)CC3)nc2cc1OCCCN1CCCC1 [UNC0642] (100 nM)	99.6
COCC[n+]1c2c(n(Cc3cnccn3)c1C)C(=O)c1ccccc1C2=O [YM155] (100 nM)	1.96

The compounds below were run on BT-474 in the same assay as above. Details: incubation time: 72 h.
Method in brief: as §1

Structure (SMILES)	normalised response [%]
CNC(=O)c1ccc(N2C(=S)N(c3ccc(C#N)c(C(F)(F)F)c3)C(=O)C23CCC3)cc1F [RD162] (100 nM)	94.2
CNC(=O)c1cc(Oc2ccc(NC(=O)Nc3ccc(Cl)c(C(F)(F)F)c3)c(F)c2)ccn1 [Regorafenib] (100 nM)	99
c1ccc2c(CCNc3ccc(Nc4ccncc4)cc3)c[nH]c2c1 [Serdemetan] (100 nM)	90.6
CC(C)C[C@@H](C(=O)N[C@H](C(=O)OC1CCCC1)c1ccccc1)[C@H](O)C(=O)NO [Tosedostat] (100 nM)	59.1
COc1cc2c(NC3CCN(C(C)C)CC3)nc(N3CCC(F)(F)CC3)nc2cc1OCCCN1CCCC1 [UNC0642] (100 nM)	103
COCC[n+]1c2c(n(Cc3cnccn3)c1C)C(=O)c1ccccc1C2=O [YM155] (100 nM)	5.9

Each compound was assayed on HCC1599 in the same assay as above. Details: incubation time: 72 h.
Method in brief: as §1

Structure (SMILES)	normalised response [%]
CNC(=O)c1ccc(N2C(=S)N(c3ccc(C#N)c(C(F)(F)F)c3)C(=O)C23CCC3)cc1F [RD162] (100 nM)	111
CNC(=O)c1cc(Oc2ccc(NC(=O)Nc3ccc(Cl)c(C(F)(F)F)c3)c(F)c2)ccn1 [Regorafenib] (100 nM)	91.2
c1ccc2c(CCNc3ccc(Nc4ccncc4)cc3)c[nH]c2c1 [Serdemetan] (100 nM)	122
CC(C)C[C@@H](C(=O)N[C@H](C(=O)OC1CCCC1)c1ccccc1)[C@H](O)C(=O)NO [Tosedostat] (100 nM)	85.1
COc1cc2c(NC3CCN(C(C)C)CC3)nc(N3CCC(F)(F)CC3)nc2cc1OCCCN1CCCC1 [UNC0642] (100 nM)	93.7
COCC[n+]1c2c(n(Cc3cnccn3)c1C)C(=O)c1ccccc1C2=O [YM155] (100 nM)	9.07

What follows are compounds tested on HCC1937 in the same assay as above. Details: incubation time: 72 h.
Method in brief: as §1

Structure (SMILES)	normalised response [%]
CNC(=O)c1ccc(N2C(=S)N(c3ccc(C#N)c(C(F)(F)F)c3)C(=O)C23CCC3)cc1F [RD162] (100 nM)	91.3
CNC(=O)c1cc(Oc2ccc(NC(=O)Nc3ccc(Cl)c(C(F)(F)F)c3)c(F)c2)ccn1 [Regorafenib] (100 nM)	100
c1ccc2c(CCNc3ccc(Nc4ccncc4)cc3)c[nH]c2c1 [Serdemetan] (100 nM)	92
CC(C)C[C@@H](C(=O)N[C@H](C(=O)OC1CCCC1)c1ccccc1)[C@H](O)C(=O)NO [Tosedostat] (100 nM)	77.5
COc1cc2c(NC3CCN(C(C)C)CC3)nc(N3CCC(F)(F)CC3)nc2cc1OCCCN1CCCC1 [UNC0642] (100 nM)	90.3
COCC[n+]1c2c(n(Cc3cnccn3)c1C)C(=O)c1ccccc1C2=O [YM155] (100 nM)	0.92

What follows are compounds tested on MDA-MB-436 in the same assay as above. Details: incubation time: 72 h.
Method in brief: as §1

Structure (SMILES)	normalised response [%]
CNC(=O)c1ccc(N2C(=S)N(c3ccc(C#N)c(C(F)(F)F)c3)C(=O)C23CCC3)cc1F [RD162] (100 nM)	101
CNC(=O)c1cc(Oc2ccc(NC(=O)Nc3ccc(Cl)c(C(F)(F)F)c3)c(F)c2)ccn1 [Regorafenib] (100 nM)	106
c1ccc2c(CCNc3ccc(Nc4ccncc4)cc3)c[nH]c2c1 [Serdemetan] (100 nM)	92
CC(C)C[C@@H](C(=O)N[C@H](C(=O)OC1CCCC1)c1ccccc1)[C@H](O)C(=O)NO [Tosedostat] (100 nM)	89
COc1cc2c(NC3CCN(C(C)C)CC3)nc(N3CCC(F)(F)CC3)nc2cc1OCCCN1CCCC1 [UNC0642] (100 nM)	97.9
COCC[n+]1c2c(n(Cc3cnccn3)c1C)C(=O)c1ccccc1C2=O [YM155] (100 nM)	1.98

The compounds below were run on MDA-MB-231 in the same assay as above. Details: incubation time: 72 h.
Method in brief: as §1

Structure (SMILES)	normalised response [%]
CNC(=O)c1ccc(N2C(=S)N(c3ccc(C#N)c(C(F)(F)F)c3)C(=O)C23CCC3)cc1F [RD162] (100 nM)	99.7
CNC(=O)c1cc(Oc2ccc(NC(=O)Nc3ccc(Cl)c(C(F)(F)F)c3)c(F)c2)ccn1 [Regorafenib] (100 nM)	101
c1ccc2c(CCNc3ccc(Nc4ccncc4)cc3)c[nH]c2c1 [Serdemetan] (100 nM)	98
CC(C)C[C@@H](C(=O)N[C@H](C(=O)OC1CCCC1)c1ccccc1)[C@H](O)C(=O)NO [Tosedostat] (100 nM)	70.2
COc1cc2c(NC3CCN(C(C)C)CC3)nc(N3CCC(F)(F)CC3)nc2cc1OCCCN1CCCC1 [UNC0642] (100 nM)	95
COCC[n+]1c2c(n(Cc3cnccn3)c1C)C(=O)c1ccccc1C2=O [YM155] (100 nM)	1.55

The compounds below were run on CAL-148 in the same assay as above. Details: incubation time: 72 h.
Method in brief: as §1

Structure (SMILES)	normalised response [%]
CNC(=O)c1ccc(N2C(=S)N(c3ccc(C#N)c(C(F)(F)F)c3)C(=O)C23CCC3)cc1F [RD162] (100 nM)	101
CNC(=O)c1cc(Oc2ccc(NC(=O)Nc3ccc(Cl)c(C(F)(F)F)c3)c(F)c2)ccn1 [Regorafenib] (100 nM)	112
c1ccc2c(CCNc3ccc(Nc4ccncc4)cc3)c[nH]c2c1 [Serdemetan] (100 nM)	91.8
CC(C)C[C@@H](C(=O)N[C@H](C(=O)OC1CCCC1)c1ccccc1)[C@H](O)C(=O)NO [Tosedostat] (100 nM)	94.2
COc1cc2c(NC3CCN(C(C)C)CC3)nc(N3CCC(F)(F)CC3)nc2cc1OCCCN1CCCC1 [UNC0642] (100 nM)	96.5
COCC[n+]1c2c(n(Cc3cnccn3)c1C)C(=O)c1ccccc1C2=O [YM155] (100 nM)	0.53
